Active and inactive are the calls of the source. Cut-off read from the data, not from the text of the source, for most assays here: actives have a measured IC50 and inactives only a lower limit.

The target of test [1] is Voltage-dependent T-type calcium channel subunit alpha-1H (Homo sapiens, UniProt O95180). Put plainly: Cav3.2 T-type channel inhibitors, cell-based, synthetic library set 1, calcium flux (AID 493022). The class given is functional.
Test [2] in a line: inhibition of K1F phage lysis, E. coli UTI89, bacterial capsule biogenesis inhibitors, alamar blue (AID 488966). The format is functional. On the technique in general: Resazurin is reduced to fluorescent resorufin, in cell work by metabolically active cells.
Test [3] deals with Cystic fibrosis transmembrane conductance regulator/Golgi-associated PDZ and coiled-coil motif-containing protein (Homo sapiens, UniProt P13569+Q9HD26). In words: CAL PDZ peptide-binding inhibitors, dose response, biochemical, fluorescence polarization, Cerulean-tagged CAL PDZ, cherry-picks (AID 504773).
Cystic fibrosis transmembrane conductance regulator/Golgi-associated PDZ and coiled-coil motif-containing protein, sequence (P13569 whole entry, other chains not shown): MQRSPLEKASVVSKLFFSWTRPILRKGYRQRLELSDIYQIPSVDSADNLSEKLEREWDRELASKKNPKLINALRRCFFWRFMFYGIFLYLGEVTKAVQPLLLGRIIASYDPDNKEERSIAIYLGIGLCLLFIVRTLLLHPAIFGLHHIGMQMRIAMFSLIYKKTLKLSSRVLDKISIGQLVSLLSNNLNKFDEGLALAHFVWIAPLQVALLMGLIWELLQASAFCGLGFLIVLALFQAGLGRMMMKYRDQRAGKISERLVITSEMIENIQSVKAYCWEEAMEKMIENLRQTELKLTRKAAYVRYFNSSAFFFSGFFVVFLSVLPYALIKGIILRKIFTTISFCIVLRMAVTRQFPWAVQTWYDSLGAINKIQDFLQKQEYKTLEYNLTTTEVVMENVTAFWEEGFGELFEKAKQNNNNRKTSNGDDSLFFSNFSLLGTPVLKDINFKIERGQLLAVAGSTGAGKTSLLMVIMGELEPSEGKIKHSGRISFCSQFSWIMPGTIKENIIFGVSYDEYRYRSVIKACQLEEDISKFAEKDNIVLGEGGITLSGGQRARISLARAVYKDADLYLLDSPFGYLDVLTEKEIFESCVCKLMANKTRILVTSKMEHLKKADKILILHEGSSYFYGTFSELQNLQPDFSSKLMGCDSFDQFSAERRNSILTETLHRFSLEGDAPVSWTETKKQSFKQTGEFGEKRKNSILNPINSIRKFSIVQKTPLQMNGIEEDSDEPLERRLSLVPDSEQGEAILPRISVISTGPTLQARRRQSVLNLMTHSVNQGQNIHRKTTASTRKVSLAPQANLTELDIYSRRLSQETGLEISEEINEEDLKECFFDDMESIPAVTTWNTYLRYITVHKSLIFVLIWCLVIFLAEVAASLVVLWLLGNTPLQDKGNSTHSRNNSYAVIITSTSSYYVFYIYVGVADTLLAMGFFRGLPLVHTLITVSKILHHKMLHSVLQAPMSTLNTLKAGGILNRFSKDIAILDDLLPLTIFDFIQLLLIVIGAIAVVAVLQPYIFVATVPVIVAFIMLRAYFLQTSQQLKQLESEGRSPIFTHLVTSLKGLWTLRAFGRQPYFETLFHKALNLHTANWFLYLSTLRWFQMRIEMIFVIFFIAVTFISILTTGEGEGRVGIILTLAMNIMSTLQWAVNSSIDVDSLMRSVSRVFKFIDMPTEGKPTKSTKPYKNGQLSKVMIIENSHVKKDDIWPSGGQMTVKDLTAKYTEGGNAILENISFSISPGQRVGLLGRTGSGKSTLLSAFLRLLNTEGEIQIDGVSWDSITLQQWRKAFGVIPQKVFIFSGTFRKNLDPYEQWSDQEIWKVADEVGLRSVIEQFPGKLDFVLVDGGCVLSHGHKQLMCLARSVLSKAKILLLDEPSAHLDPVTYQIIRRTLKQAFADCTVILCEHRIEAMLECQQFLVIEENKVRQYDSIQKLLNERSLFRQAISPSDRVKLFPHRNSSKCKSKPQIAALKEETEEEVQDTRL
Test [4] concerns the target T1, Tyrosine-protein phosphatase non-receptor type 7 (Homo sapiens, UniProt P35236).
T1 sequence (P35236 whole entry): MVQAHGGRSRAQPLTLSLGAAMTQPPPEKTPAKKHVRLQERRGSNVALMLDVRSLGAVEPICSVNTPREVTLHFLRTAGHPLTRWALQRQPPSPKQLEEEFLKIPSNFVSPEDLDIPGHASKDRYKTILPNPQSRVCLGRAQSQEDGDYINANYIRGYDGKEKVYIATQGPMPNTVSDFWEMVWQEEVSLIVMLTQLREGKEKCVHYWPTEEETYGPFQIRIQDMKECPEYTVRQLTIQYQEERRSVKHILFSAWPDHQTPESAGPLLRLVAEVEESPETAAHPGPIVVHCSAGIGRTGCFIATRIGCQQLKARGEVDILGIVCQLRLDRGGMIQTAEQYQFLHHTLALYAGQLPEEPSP
Put plainly: SAR analysis of chemical inhibitors of HePTP using a Fluorescent assay - Set 2. [Related pubchem assays (depositor defined):AID1059, AID1077, AID1661, AID2085, AID521]. The class given is functional.

Test [5] has as its target T2, Dual specificity protein phosphatase 3 (Homo sapiens, UniProt P51452). In words: SAR VHR1 Fluorescent Assay for In Vitro dose response studies Set 2. [Related pubchem assays (depositor defined):AID1654, AID1661, AID1878]. The format is functional.
The target in test [6] is T1, Tyrosine-protein phosphatase non-receptor type 7. Put plainly: HePTP (PTPN7) phosphatase inhibitor potency, SAR follow-up, biochemical, set 2 (AID 449736). The class given is functional.
Test [7] shares this target. In words: redox-dependent HePTP inhibition, mechanism study, biochemical, fluorescence (AID 2068). The format is functional.
The target in test [8] is T3, Tyrosine-protein phosphatase non-receptor type 12 (Homo sapiens, UniProt Q05209).
T3 sequence (Q05209 whole entry): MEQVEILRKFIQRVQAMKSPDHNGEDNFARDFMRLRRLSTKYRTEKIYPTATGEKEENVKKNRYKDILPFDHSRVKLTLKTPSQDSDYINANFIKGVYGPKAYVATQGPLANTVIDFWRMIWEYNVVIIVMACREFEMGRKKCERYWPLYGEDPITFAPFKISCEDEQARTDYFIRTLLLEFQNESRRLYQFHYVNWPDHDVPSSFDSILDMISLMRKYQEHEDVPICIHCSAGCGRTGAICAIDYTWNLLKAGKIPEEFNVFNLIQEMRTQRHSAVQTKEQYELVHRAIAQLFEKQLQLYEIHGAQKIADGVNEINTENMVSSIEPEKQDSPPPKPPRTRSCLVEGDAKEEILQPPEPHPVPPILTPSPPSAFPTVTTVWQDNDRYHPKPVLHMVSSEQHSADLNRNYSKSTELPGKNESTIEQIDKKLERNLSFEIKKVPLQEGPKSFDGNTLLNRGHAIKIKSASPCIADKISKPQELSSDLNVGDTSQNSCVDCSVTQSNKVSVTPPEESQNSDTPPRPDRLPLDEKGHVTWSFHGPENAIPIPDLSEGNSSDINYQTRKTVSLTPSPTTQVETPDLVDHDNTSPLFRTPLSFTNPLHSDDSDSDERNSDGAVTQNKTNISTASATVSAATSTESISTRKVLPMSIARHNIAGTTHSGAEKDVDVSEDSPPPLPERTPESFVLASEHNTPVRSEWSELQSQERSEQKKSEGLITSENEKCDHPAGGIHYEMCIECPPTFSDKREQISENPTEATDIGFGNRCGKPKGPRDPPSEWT
Put plainly: SAR Selectivity Analysis of small molecule inhibitors of PEST using pCAP in a fluorescence assay. [Related pubchem assays (depositor defined):AID1779, AID1784, AID2135]. The class given is functional.

Test [9] has as its target T4, Dual specificity protein phosphatase 6 (Rattus norvegicus, UniProt Q64346).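 Note: confirmatory in vitro dose-response testing of MKP-3 inhibition; recombinant His-tagged MKP-3 made in E. coli BL21 with OMFP substrate.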
T4 sequence (Q64346 whole entry): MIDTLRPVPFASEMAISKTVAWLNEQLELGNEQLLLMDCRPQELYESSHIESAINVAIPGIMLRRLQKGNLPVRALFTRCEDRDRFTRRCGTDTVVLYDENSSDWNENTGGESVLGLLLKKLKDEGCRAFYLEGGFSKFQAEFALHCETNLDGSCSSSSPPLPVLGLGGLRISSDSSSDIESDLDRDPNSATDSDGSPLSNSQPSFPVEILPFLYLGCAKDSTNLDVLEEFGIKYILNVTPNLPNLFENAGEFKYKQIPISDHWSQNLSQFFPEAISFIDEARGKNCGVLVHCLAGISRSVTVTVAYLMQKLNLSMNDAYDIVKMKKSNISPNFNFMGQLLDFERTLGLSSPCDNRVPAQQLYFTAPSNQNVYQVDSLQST
The class given is functional.

The target in test [10] is T2, Dual specificity protein phosphatase 3. Put plainly: MOA VHR1 Fluorescent secondary assay for identification of redox-state modulating compounds. [Related pubchem assays (depositor defined):AID1654, AID1661, AID1878, AID1957].
Test [11] addresses T5, Tyrosine-protein phosphatase non-receptor type 22 (Homo sapiens, UniProt Q9Y2R2).
T5 sequence (Q9Y2R2 whole entry): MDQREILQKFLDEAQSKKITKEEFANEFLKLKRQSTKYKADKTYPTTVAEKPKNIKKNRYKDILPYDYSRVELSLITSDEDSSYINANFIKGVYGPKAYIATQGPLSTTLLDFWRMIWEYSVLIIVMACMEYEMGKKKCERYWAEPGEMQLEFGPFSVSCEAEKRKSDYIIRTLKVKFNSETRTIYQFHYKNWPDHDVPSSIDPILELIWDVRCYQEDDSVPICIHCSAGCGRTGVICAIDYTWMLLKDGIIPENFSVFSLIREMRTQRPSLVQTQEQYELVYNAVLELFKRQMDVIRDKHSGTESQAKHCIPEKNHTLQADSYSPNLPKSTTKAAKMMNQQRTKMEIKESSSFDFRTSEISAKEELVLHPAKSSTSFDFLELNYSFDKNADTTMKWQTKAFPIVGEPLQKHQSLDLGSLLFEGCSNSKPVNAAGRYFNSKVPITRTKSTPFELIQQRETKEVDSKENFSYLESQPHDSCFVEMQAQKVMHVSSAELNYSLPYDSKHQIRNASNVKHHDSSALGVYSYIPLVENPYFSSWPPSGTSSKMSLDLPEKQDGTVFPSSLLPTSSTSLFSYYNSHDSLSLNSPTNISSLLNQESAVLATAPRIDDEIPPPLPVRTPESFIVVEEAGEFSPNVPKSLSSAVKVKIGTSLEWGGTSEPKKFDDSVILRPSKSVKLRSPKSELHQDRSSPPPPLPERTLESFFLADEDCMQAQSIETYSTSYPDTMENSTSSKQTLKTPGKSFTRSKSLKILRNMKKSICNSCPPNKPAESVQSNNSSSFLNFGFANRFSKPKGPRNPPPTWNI
In words: SAR LYP1 Fluorescent Assay using OMFP substrate for In Vitro dose response studies - Set 3. [Related pubchem assays (depositor defined):AID1779, AID1784, AID2140, AID2686]. The format is functional.

Test [12] has as its target T2, Dual specificity protein phosphatase 3. In words: SAR VHR1 Fluorescent Assay for In Vitro dose response studies. [Related pubchem assays (depositor defined):AID1654, AID1661, AID1878, AID1992, AID2004, AID2070, AID2085]. The format is functional.

T2 sequence (P51452 whole entry): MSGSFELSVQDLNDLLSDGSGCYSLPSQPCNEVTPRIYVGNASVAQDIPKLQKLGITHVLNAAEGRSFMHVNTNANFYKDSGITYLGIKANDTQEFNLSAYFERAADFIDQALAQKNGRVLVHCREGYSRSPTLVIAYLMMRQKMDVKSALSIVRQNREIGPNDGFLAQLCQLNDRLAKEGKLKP
Voltage-dependent T-type calcium channel subunit alpha-1H, sequence (O95180 whole entry): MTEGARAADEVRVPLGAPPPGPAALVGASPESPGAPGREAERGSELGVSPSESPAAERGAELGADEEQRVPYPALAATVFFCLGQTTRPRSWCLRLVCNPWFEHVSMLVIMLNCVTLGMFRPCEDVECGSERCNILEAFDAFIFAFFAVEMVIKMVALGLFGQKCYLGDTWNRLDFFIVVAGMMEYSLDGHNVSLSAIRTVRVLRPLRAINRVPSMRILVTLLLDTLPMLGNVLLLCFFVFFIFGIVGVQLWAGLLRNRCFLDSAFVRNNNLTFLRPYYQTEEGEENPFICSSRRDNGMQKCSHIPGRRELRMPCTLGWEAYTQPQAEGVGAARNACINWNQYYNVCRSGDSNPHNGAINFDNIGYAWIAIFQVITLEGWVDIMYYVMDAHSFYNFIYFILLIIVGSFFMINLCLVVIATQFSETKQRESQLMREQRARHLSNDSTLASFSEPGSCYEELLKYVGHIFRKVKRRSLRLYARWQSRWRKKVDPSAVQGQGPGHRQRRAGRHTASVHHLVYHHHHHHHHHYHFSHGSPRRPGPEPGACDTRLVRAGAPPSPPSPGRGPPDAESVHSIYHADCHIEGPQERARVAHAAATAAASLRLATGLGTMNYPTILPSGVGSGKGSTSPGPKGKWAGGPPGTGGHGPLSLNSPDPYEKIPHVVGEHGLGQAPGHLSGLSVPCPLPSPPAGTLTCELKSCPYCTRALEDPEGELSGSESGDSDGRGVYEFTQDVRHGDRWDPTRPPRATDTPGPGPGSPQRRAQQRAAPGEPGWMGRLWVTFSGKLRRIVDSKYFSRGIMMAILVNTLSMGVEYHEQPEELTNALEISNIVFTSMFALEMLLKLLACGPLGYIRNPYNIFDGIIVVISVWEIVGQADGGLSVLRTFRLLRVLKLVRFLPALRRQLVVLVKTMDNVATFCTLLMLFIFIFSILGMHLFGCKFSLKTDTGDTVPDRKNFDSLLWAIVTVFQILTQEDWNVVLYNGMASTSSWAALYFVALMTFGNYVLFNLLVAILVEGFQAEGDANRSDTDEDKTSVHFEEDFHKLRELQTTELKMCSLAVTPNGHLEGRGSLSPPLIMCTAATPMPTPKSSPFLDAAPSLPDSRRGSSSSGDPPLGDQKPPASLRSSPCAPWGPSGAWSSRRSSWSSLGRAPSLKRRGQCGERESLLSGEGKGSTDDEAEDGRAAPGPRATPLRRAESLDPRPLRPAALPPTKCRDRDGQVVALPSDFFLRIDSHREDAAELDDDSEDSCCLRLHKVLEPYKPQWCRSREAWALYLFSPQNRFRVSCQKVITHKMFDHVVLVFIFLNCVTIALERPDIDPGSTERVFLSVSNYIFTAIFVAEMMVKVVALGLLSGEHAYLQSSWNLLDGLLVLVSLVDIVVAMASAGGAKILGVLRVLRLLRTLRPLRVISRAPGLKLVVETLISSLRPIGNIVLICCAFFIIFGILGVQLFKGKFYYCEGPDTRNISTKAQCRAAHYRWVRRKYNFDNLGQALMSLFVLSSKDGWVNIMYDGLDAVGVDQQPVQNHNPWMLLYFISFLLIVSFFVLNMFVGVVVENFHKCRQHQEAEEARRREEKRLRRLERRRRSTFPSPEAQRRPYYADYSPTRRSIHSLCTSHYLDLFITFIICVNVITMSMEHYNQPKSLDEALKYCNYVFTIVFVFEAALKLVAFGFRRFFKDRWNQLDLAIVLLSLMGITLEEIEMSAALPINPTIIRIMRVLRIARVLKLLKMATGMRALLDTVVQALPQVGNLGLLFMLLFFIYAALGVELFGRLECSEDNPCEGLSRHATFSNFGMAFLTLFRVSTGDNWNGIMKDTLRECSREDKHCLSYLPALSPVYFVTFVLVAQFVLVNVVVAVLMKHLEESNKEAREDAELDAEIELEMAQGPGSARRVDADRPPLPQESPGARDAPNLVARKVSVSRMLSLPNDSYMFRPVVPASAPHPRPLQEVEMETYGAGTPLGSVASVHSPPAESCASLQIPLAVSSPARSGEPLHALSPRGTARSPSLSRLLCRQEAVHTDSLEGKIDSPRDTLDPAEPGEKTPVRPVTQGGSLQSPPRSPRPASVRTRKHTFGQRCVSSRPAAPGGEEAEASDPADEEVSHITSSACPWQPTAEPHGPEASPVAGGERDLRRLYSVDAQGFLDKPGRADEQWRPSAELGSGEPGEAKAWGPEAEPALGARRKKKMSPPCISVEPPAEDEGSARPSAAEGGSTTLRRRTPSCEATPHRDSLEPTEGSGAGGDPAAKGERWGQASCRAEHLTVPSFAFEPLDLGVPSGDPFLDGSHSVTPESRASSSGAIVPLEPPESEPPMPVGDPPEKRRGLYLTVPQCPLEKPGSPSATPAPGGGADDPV

In the case of `O=C(COc1ccc(F)cc1Cl)Nc1nnc(-c2ccc(F)cc2)o1`, the EC50 in [1] was 1.9 µM (active).

Consider `OC(CNc1ccnc2cc(Cl)ccc12)CNC1CCCCC1` (stereo not drawn), for which the IC50 in [2] is > 150 µM (active).

`OC(c1ccccc1)(c1ccccc1)c1nccc2ccccc12`: in [3], the AC50 was 44.9 µM (active).

For `COc1cc(C(=S)NCc2ccc(C(F)(F)F)cc2)ccc1O`, the IC50 in test [4] is > 100 µM (inactive); in test [5], 86.9 µM (active).

Turning to `CCOC(=O)C1=C(C)N=c2s/c(=C/c3cc(Cl)c(OCC(=O)O)c(OC)c3)c(=O)n2C1c1ccccc1Cl` (stereo not drawn), the IC50 in test [6] was 1.72 µM (active); in [7], 1.65 µM (active); in test [8] it was 7.63 µM (active); in [9], 39.5 µM (active); in test [10], 3.07 µM (active); in test [5], 41.1 µM (active). For the same compound, the figures for the IC50 in [11] and in test [12] were 30.5 µM (active) and 15.1 µM (active), respectively.

Usually EC50 stands for the concentration at which the effect is half-maximal. In general, IC50 refers to the concentration that inhibits the measured activity by half. The AC50 is the concentration giving half of the maximal activity seen.

The record behind these values is ChEMBL document CHEMBL1201862, “PubChem BioAssay data set” (2004).
